In the supplement of paper PMC10331698:
± gives the standard deviation of the averaged measurements.

What was measured:
Experiment in all cases: level (log10 ratio to DMSO vehicle control); higher = higher biomarker level / cell amount than vehicle control
Details in all cases: in DMSO
[1] = compound: CC(C)(C)C(=O)CC(=O)C(F)(F)C(F)(F)C(F)(F)F [(Heptafluorobutanoyl)pivaloylmethane]
Experimental: (§1)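 BioMAP Diversity Plus panel of 12 human primary cell co-culture systems (3C, 4H, LPS, SAg, BT, BF4T, BE3C, CASM3C, HDF3CGF, KF3CT, MyoF, Mphg). Compounds were added 1 h before stimulation and left for 24 h (MyoF 48 h; BT 72 h for soluble read-outs or 6 d for IgG). Biomarkers were read by ELISA, cytotoxicity by SRB, PBMC viability and proliferation by Alamar Blue. Each well value was divided by the mean of 8 DMSO control wells on the same plate and log10 transformed; duplicate blinded samples were tested at 4 concentrations.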

[2] = compound: O=C(O)CCC(F)(F)C(F)(F)C(F)(F)C(F)(F)C(F)(F)F [2H,2H,3H,3H-Perfluorooctanoic acid]
Experimental: as §1

[3] = compound: CNS(=O)(=O)C(F)(F)C(F)(F)C(F)(F)C(F)(F)C(F)(F)C(F)(F)C(F)(F)C(F)(F)F [N-Methylperfluorooctanesulfonamide]
Experimental: as §1

1-(Perfluorohexyl)octane = compound: CCCCCCCCC(F)(F)C(F)(F)C(F)(F)C(F)(F)C(F)(F)C(F)(F)F [1-(Perfluorohexyl)octane]
Experimental: as §1

Hexafluoroglutaric acid = compound: O=C(O)C(F)(F)C(F)(F)C(F)(F)C(=O)O [Hexafluoroglutaric acid]
Experimental: as §1

Perfluorooctanamidine = compound: N=C(N)C(F)(F)C(F)(F)C(F)(F)C(F)(F)C(F)(F)C(F)(F)C(F)(F)F [Perfluorooctanamidine]
Experimental: as §1

Perfluorooctanamide = compound: NC(=O)C(F)(F)C(F)(F)C(F)(F)C(F)(F)C(F)(F)C(F)(F)C(F)(F)F [Perfluorooctanamide]
Experimental: as §1

Row | Test System | level (log10) ([1]; 6700 nM) | level (log10) ([1]; 20000 nM) | level (log10) ([1]; 60000 nM) | level (log10) ([2]; 6700 nM) | level (log10) ([2]; 20000 nM) | level (log10) ([2]; 60000 nM) | level (log10) ([3]; 6700 nM) | level (log10) ([3]; 20000 nM) | level (log10) ([3]; 60000 nM) | level (log10) (1-(Perfluorohexyl)octane; 6700 nM) | level (log10) (1-(Perfluorohexyl)octane; 20000 nM) | level (log10) (Hexafluoroglutaric acid; 6700 nM) | level (log10) (Hexafluoroglutaric acid; 20000 nM) | level (log10) (Hexafluoroglutaric acid; 60000 nM) | level (log10) (Perfluorooctanamidine; 6700 nM) | level (log10) (Perfluorooctanamidine; 20000 nM) | level (log10) (Perfluorooctanamidine; 60000 nM) | level (log10) (Perfluorooctanamide; 6700 nM) | level (log10) (Perfluorooctanamide; 20000 nM) | level (log10) (Perfluorooctanamide; 60000 nM)
1 | LPS:CD141/Thrombomodulin | -0.013 ± 0.037 | -0.0095 ± 0.042 | 0.0325 ± 0.0021 | 0.0745 ± 0.043 | 0.048 ± 0.089 | 0.009 ± 0.088 | 0.005 ± 0.0028 | 0.0475 ± 0.0092 | 0.056 ± 0.0014 | -0.0215 ± 0.0021 | 0.0025 ± 0.023 | 0.002 ± 0.0071 | -0.022 ± 0.021 | -0.0355 ± 0.032 | -0.0235 ± 0.0078 | -0.0325 ± 0.022 | -0.01 | -0.016 ± 0.03 | -0.0075 ± 0.0064 | -0.0155 ± 0.037
2 | LPS:CD142/Tissue Factor | 0.0055 ± 0.012 | 0.0385 ± 0.018 | 0.034 ± 0.0057 | 0.0725 ± 0.018 | 0.063 ± 0.0028 | 0.0265 ± 0.037 | -0.0275 ± 0.016 | -0.0395 ± 0.016 | -0.074 ± 0.018 | -0.006 ± 0.088 | 0.003 ± 0.083 | 0.0325 ± 0.08 | -0.0085 ± 0.077 | -0.0285 ± 0.081 | -0.008 ± 0.037 | 0.0055 ± 0.033 | -0.071 | -0.0585 ± 0.0092 | 0.0025 ± 0.032 | -0.002 ± 0.0042
3 | LPS:CXCL8/IL-8 | -0.019 ± 0.0099 | 0.015 ± 0.0057 | 0.0265 ± 0.013 | 0.054 ± 0.034 | 0.0715 ± 0.09 | 0.121 ± 0.11 | -0.007 ± 0.0085 | -0.003 ± 0.016 | -0.0025 ± 0.019 | 0.0335 ± 0.00071 | 0.0405 ± 0.026 | -0.0235 ± 0.012 | -0.0535 ± 0.018 | -0.028 ± 0.067 | -0.019 ± 0.027 | -0.005 ± 0.016 | -0.028 | -0.012 ± 0.024 | -0.049 ± 0.023 | -0.0335 ± 0.021
4 | LPS:IL-1alpha | 0.0285 ± 0.00071 | 0.0365 ± 0.0021 | 0.0745 ± 0.026 | 0.0025 ± 0.00071 | 0.029 ± 0.035 | 0.0415 ± 0.00071 | 0.0405 ± 0.071 | 0.107 ± 0.067 | 0.124 ± 0.078 | -0.0215 ± 0.016 | 0.001 ± 0.0057 | -0.023 ± 0.02 | -0.0325 ± 0.0064 | 0.002 ± 0.037 | 0.011 ± 0.024 | -0.0095 ± 0.049 | -0.003 | -0.032 ± 0.033 | -0.003 ± 0.047 | -0.0395 ± 0.0092
